For this assay, the system named is all wired variants (GDH-S247PDAz, FGM-S247PDAz, FGM-T558PDAz, FGM-S247PCA). As to conditions: read-out: KM^app of all samples (electrochemical); glucose; range over all wired variants; 300 mV vs. Ag/AgCl.

The values that follow come from patent US12359238B2 (priority 2017, dated 2025).

For `OC[C@H]1OC(O)[C@H](O)[C@@H](O)[C@@H]1O` (stereo partly shown) [glucose], the Michaelis-Menten constant (Km) was 1550 to 1890 µM.

As usually defined, the Km is the concentration of substrate that gives half-maximal velocity.
